Measurements as given in US12447184B1, “Lactic acid bacteria and use thereof” (UNIVERSITY-INDUSTRY COOPERATION GROUP OF KYUNG HEE …, priority 2017, dated 2025).

Key:
mouse [1] = assay: Object recognition test; type: in vivo; conditions: mouse given LPS from E. coli 0.5 mg/kg/day i.p. for five days
Experimental: (§1) On a following day after intraperitoneally administering LPS isolated from E. coli (0.5 mg/kg/day) to a mouse for five days, lactic acid bacteria were administered thereto, and an effect of lactic acid bacteria on improving a cognitive function was identified in such a way that an object recognition test and a Y maze test were performed and BDNF in a hippocampus was measured by immunoblotting, wherein the results thereof are as shown in a following table 18.
Particularly, as an object recognition test method, two objects (A, A′) of the same shape and size were fixed into a box (40×40×40 cm), of which outside is not visible from the inside, then a mouse was allowed to start moving at the center of the box, and then the number of touching the two objects was recorded for 10 minutes. In 24 hours later, one of the two objects was replaced with a new one (A, B), and then the number of touching an old one and a new one was recorded and quantified.

colon [2] = assay: Colitis indicators (colon length, myeloperoxidase, inflammatory indicators of the colon); type: in vivo, mouse; conditions: immobilization stress
Experimental: 200 μl of 10 mM potassium phosphate buffer, pH 7.0 containing 0.5% hexadecyl trimethyl ammonium bromide was put into 100 mg of a colon tissue, and then subjected to homogenization. A resulting mixture was centrifuged for 10 minutes on condition of 4° C. and 10,000 g, so as to obtain a supernatant. 50 μl of the supernatant was put into 0.95 ml of a reaction solution (containing 1.6 mM tetramethyl benzidine and 0.1 mM H2O2), then subjected to reaction at 37° C., and then an observance was […] measured at 650 nm. An activity of the said myeloperoxidase (MPO) was calculated with a resulting reactant H2O2 1 μmol/ml=1 unit.
(§2) Inflammatory reaction biomarkers such as p-p65, p65, iNOS, COX-2 and β-actin were measured by means of a western blotting method. Particularly, 50 μg of supernatant, which had been obtained by the same method as shown in the said experiment for measuring the activity of myeloperoxidase (MPO), was taken and then immune blotting was performed thereon. Also, an expression level of cytokines was measured by means of ELISA kit, and LPS was measured by means of LAL assay kit.
In two hours after performing a last behavioral experiment on an anxious mouse in Experimental Example 1, the mouse was anesthetized, and a colon length and activations of MPO, COX-2, TNF-α and NF-Kb were measured by the same method as shown in Experimental Example 5, wherein the results thereof are as shown in a following table 15.

mouse [3] = assay: Tail suspension test (TST); type: in vivo; conditions: depressed mouse model
Experimental: (§3) Also, in order to prepare a mouse with depression induced by immobilization stress, the said mouse, which had been fixed to the apparatus, was repeatedly subjected to continuous immobilization stress once daily for two days, in such a way that the mouse was held with its head up for 12 hours. A lactic acid bacterium was administered once daily for five days, and a behavioral experiment was performed in one hour after a final administration.
According to a method of Steru et al. (Steru L, Chermat R, Thierry B, Simon P (1985) The tail suspension test: A new method for screening antidepressants in mice, Psychopharmacology, Vol. 85; pp. 367-370), a mouse was hanged up in a container 35 cm in diameter and 50 cm in height by placing a fixing device approximately 1 cm from the tip of a tail thereof of a mouse, such that the mouse was suspended 50 cm above a floor. For six minutes in total, an immobility time of the laboratory animal was measured.

mouse [4] = assay: Light/dark transition test; type: in vivo; conditions: immobilization stress model
Experimental: An apparatus used for a light/dark transition test consisted of a bright area (21×42×25 cm, 390 Lux white diode) and a dark area (21×42×25 cm, 2 Lux), which were of a size and partitioned off with a door (7.5×7.5 cm). A mouse was placed in a bright area and observed for five minutes, during which time in bright area and the number of transitions into the bright area were measured. After the end of each behavioral experiment, remaining smell was eliminated by means of 70% ethanol.
According to a known interpretation of test results, it was interpreted that a mental disorder symptom such as anxiety, depression or the like occurs, if the time in bright area and the number of transitions into the bright area decrease.

[5] = test system: corticosterone, IL-6, TNF-α and lipopolysaccharide in blood; assay: Blood indicators (corticosterone, IL-6, TNF-α, lipopolysaccharide); type: in vivo, mouse; conditions: for BC (ng/mL), corticosterone in blood: immobilization stress
Experimental: (§4) An anxiety behavior was measured in five hours after administering the lactic acid bacterium or physiological saline solution, and blood indicators (corticosterone, IL-6, TNF-α, etc.) were measured by collecting blood in one hour after finishing an elevated plus maze test.
Blood was diluted 10 times with PBS, then centrifuged, and then a resulting supernatant was treated at […] for 10 minutes. A resulting supernatant was filtered with a 0.45 μm filter, then filtered again with a 0.22 μm filter, and then used as a specimen. For the said specimen, lipopolysaccharide was measured by means of Limulus amoebocyte lysate (LAL) assay kit (Cape Cod Inc., East Falmouth, MA, U.S.A.).
as §2
(§5) In two hours after performing a last behavioral experiment on a depressed mouse, the mouse was anesthetized, and corticosterone in blood was measured by means of ELISA, and a brain derivated neurotrophic factor (BDNF) and NF-κB of a brain and NF-κB of a colon were measured by means of immunoblotting by the same method as shown in Experimental Example 5 above, wherein the results thereof are as shown in a following table 14.

colon [6] = assay: Colitis indicators (colon length, myeloperoxidase, inflammatory indicators of the colon); type: in vivo, mouse; conditions: antibiotic stress
mouse [7] = assay: Y maze test; type: in vivo; conditions: mouse given LPS from E. coli 0.5 mg/kg/day i.p. for five days; spontaneous alteration
Experimental: as §1
Also, as a Y maze test method, a test apparatus consisted of the three identical arms (8 cm in length, […], 14 cm in height), each positioning at a certain angle of 120°. The mouse was placed at the end of one arm and allowed to freely move in a Y maze for eight minutes, after which the number and order of entering respective arms were measured, so as to evaluate a spontaneous alteration (%). The alteration was defined as an alphabetical character order, in which the mouse sequentially entered into three arms, i.e. ABC, BCA, CAB, etc. % alteration=[Total number of alterations]/[Total number of arm entries−2]×100

[8] = test system: NF-κB (p-p65/p65) and BDNF in a hippocampus; assay: NF-κB activity and BDNF expression in hippocampus (immunoblotting); type: in vivo; conditions: depressed mouse
Experimental: as §2, §5

BDNF in a hippocampus = BDNF in a hippocampus by immunoblotting (LPS-treated mouse); type: in vivo; conditions: mouse given LPS from E. coli 0.5 mg/kg/day i.p. for five days
Experimental: as §1

C57BL/6 mouse = assay: Elevated plus maze (EPM) test; type: in vivo; conditions: for OE (%) / OT (%): immobilization stress
Text: In order to induce a mental disorder such as anxiety, depression, stress or the like, a mouse was fixed to a 3×10 cm cylindrical-shaped immobilization stress apparatus, such that the mouse may not move therein at all.
Particularly, in order to prepare a mouse with anxiety induced by immobilization stress, the said mouse, which had been fixed to the apparatus, was repeatedly subjected to immobilization stress five times, in such a way that the mouse was held with its head up for two hours once every other day, and then a behavioral experiment was performed in two hours after a final immobilization stress.
as §3
In order to induce a mental disorder such as anxiety, depression, stress or the like, a mouse was administered ampicillin (100 mg/kg) for two days in a row. An anxiety behavior was measured in 10 days after administration.
For a mouse model with immobilization stress induced, a lactic acid bacterium or physiological saline solution was administered thereto depending on an experimental group once daily for three days from Day 7 after starting the immobilization stress. For a mouse model with antibiotic stress induced, a lactic acid bacterium or physiological saline solution was administered thereto depending on an experimental group once daily for three days from Day 7 after starting the antibiotic stress.
as §4
An elevated plus maze is an experimental apparatus to measure a degree of a mental disorder such as stress, anxiety or the like. An elevated plus maze experimental apparatus used in the present experiment is a black plexiglass apparatus, in which two open arms (30×7 cm) and two enclosed arms (30×7 cm) with 20 cm-high walls stand 50 cm high above a floor, each extending 7 cm away from a center platform. In the present test, a mouse was placed in the elevated plus maze in a room, where a video camera of 20 Lux was installed high up there, and then a movement of the mouse was recorded.
Particularly, a C57BL/6 mouse (male, 19-22 g) was placed in the middle of the elevated plus maze, in such a way that a head of the mouse faced toward an open arm. Time spent in open and closed arms as well as the number of arm entries were measured for five minutes. An arm entry was defined as a case in which the mouse entered an arm with all four feet.
Out of a whole test time, the time spent in open arms (OT) was calculated via [Time spent in open arms (OT)/(Time spent in open arms (OT)+Time spent in closed arms)]×100. […] After the end of each behavioral experiment, remaining smell was eliminated by means of 70% ethanol.
According to a known interpretation of test results, it was interpreted that a mental disorder symptom such as anxiety, depression or the like occurs, if OT and OE decrease.

mouse [9] = assay: Forced swimming test (FST); type: in vivo; conditions: depressed mouse model
Experimental: as §3
According to a method of Porsolt et al. (Porsolt R D, Le Pichon, Jalfre M (1977) Depression: A new animal model sensitive to antidepressant treatments, Nature, Vol. 266; pp. 730-732), water at 25±1° C. was filled into a water tank 40 cm in height and 20 cm in diameter, until a water level reached 25 cm high. A laboratory mouse was put into each tank and stayed there for total six minutes, out of which first two minutes were not measured as an adaptive time, and then for the last four minutes, an immobility time of the laboratory animal was measured. The immobility means a state that the mouse is floating in the water motionlessly except the least movement to keep its head only above the water.

[10] = antibiotic stress (ampicillin 100 mg/kg, two days)

Structure (SMILES): O=C1CC2(CCCC2)CC(=O)N1CCCCN1CCN(c2ncccn2)CC1 [Buspirone]
- Object recognition test (%) (mouse [1]): 42.9%
- Colon length (cm) (colon [2]; Anxious mouse): 5.2 cm
- Inflammatory indicator inhibition rate COX-2 (colon [2]; anxious mouse, colon): + (+, 10~30%)
- Inflammatory indicator inhibition rate NF-κB (colon [2]; anxious mouse, colon): + (+, 10~30%)
- Inflammatory indicator inhibition rate TNF-α (colon [2]; anxious mouse, colon): + (+, 10~30%)
- MPO inhibitory capacity (colon [2]; anxious mouse, colon): + (+, 10~30%)
- Immobility time (%) (mouse [3]): 25.2%
- Number of transitions (mouse [4]): 19.6
- Time in bright area (%) (mouse [4]): 40.1%
- BC (ng/mL), corticosterone in blood ([5]; Anxious mouse): 1.2 ng/mL
- BC (ng/mL), corticosterone in blood ([5]; Depressive mouse): 3.8 ng/mL
- Blood corticosterone [5, 10]: 1.6 ng/mL
- Blood corticosterone ([5]; depressed mouse, ELISA, Table 14): 3.8 ng/mL
- Colon length (cm) (colon [6]): 5.5 cm
- Inflammatory indicator inhibition rate COX-2 (colon [6]; colon): + (+, 10~30%)
- Inflammatory indicator inhibition rate NF-κB (colon [6]; colon): + (+, 10~30%)
- Inflammatory indicator inhibition rate TNF-α (colon [6]; colon): + (+, 10~30%)
- MPO inhibitory capacity (colon [6]; colon): + (+, 10~30%)
- Y maze test (%) (mouse [7]): 62.4%
- BDNF expression level [8]: − (− , <10%)
- NF-kB activation inhibitory capacity [8]: − (− , <10%)
- Hippocampus BDNF expression capacity (BDNF in a hippocampus): + (+, 10~30%)
- OE (%) (C57BL/6 mouse; Anxious mouse): 33.8%
- OT (%) (C57BL/6 mouse; Anxious mouse, once daily for three days): 16.7%
- OE (%) (C57BL/6 mouse; Depressive mouse): 29.8%
- OT (%) (C57BL/6 mouse; Depressive mouse): 15.7%
- Open arm entries (%) (C57BL/6 mouse; [10]): 31.3%
- Time spent in open arms (%) (C57BL/6 mouse; [10]): 14.1%
- Immobility time (%) (mouse [9]): 32.1%
